What was measured:
[1] = test system: Septoria leaf blotch (Mycosphaerella graminicola); assay: Test Example 3: growth of Septoria leaf blotch in YBG medium, microtiter plate, absorbance at 550 nm; format: cell-based; details: single use, concentration in medium 0.005 ppm; 18° C., four days
Protocol: Each of the present compound 1 or the present compound 2 was dissolved into dimethyl sulfoxide such that each concentration of these compounds was adjusted to one hundred fifty times as much as the concentration indicated in the below-mentioned Table 2. The resultant agent solution was dispensed into each microtiter plate (with 96 wells) in 1 μl portion thereof per well. […] The plate was cultivated at 18° C. for four days, thereby allowing Septoria leaf blotch (Mycosphaerella graminicola) to undergo proliferation, and the absorbance at 550 nm of each well of the microtiter plate was then measured to examine a degree of growth of Septoria leaf blotch (hereinafter referred to as “treated group”).
Whereas, Septoria leaf blotch was proliferated similarly to the case of the treated group except that dimethyl sulfoxide was used instead of the agent solution, and the degree of the growth was examined (hereinafter referred to as “untreated group”). The efficacy was calculated from each of the obtained degree of growth of the treated group and the untreated group respectively by the following “Equation 1”. […]

[2] = test system: Brown rust (Puccinia recondita); assay: Test Example 4: foliar spray on wheat, Brown rust lesion area; format: in vivo, Puccinia recondita on wheat (cultivar. Shirogane); details: single use, foliar spray one day before inoculation, lesion area after ten days
Protocol: Five (5) parts of the present compound 1, 35 parts of a mixture of white carbon and ammonium polyoxyethylene alkyl ether sulfate (the weight ratio of 1:1) and […] of water were mixed, and the mixture was then finely-ground by a wet grinding method to obtain a flowable comprising the present compound 1. Separately, the flowable comprising the present compound 2 was prepared according to the above-mentioned similar method except that the present compound 2 was used instead of the present compound 1.
Each of the flowable comprising the present compound 1 and the flowable comprising the present compound 2 was diluted with water and if necessary, the resultant dilute solutions were mixed each other such that each concentration of the respective compounds in the dilution solution was adjusted to the concentration indicated in Table 3, to prepare the dilution solutions, respectively.
A plastic pot was filled with soil, and thereto wheat (cultivar. Shirogane) was seeded, and the plants were grown in a greenhouse for ten days. The above-mentioned dilution solutions were sprayed to foliar parts so as to adhere adequately onto the surfaces of leaves of the above wheats. After spraying the dilute solution, the plants were air-dried, and one day after the application, an aqueous suspension of uredospores of Brown rust (Puccinia recondita) was inoculated by spraying thereto. After the inoculation, the plants were placed at 27° C. under humid condition for one day, and were then cultivated under lighting for ten days, and a lesion area was examined (hereinafter referred to as “lesion area of treated group”).
Whereas, wheats were cultivated similarly to the treated group except that no foliage application of the above-mentioned agent solution was done, and Brown rust were inoculated, and the lesion area thereof was examined (hereinafter referred to as “lesion area of the untreated group”).
From each of the lesion area of the treated group and the untreated group, respectively, the efficacy of the treated group was calculated by the following Equation 2. […]

Row | SMILES | Efficacy (%) [1] [%] | Efficacy (%) ([2]; concentration in agent solution 0.0001 ppm) | Efficacy (%) ([2]; concentration in agent solution 0.01 ppm) | Efficacy (%) ([2]; concentration in agent solution 0.001 ppm)
1 | CNC(=O)C(OC)c1ccccc1COc1cc(C)ccc1C (stereo not shown) [Present compound 1] | 20 | 22 | 46 | 
2 | CC1CC(C)(C)c2c(F)ccc(NC(=O)c3cn(C)nc3C(F)F)c21 (stereo not shown) [Present compound 2] |  |  |  | 15
